Where two headings read alike, the source gives them in different places.
How the values were obtained:
[1] = system: overweight and obese patients; details: subcutaneously for 4 weeks, 3 times per day; cited from earlier work
[2] = Single-dose pharmacokinetic profile in mice; details: mouse
Source text: (§1) ICR mice were used to evaluate the pharmacokinetics in mice of the acylated oxyntomodulin peptide analogs according to the present invention.

[3] = Single-dose pharmacokinetic profile in monkeys; details: cynomolgus monkey, plasma, sc, 100 nmmol/kg, Monkey PK (S.C. half-life), single S.C. dose 100 nmmol/kg
Source text: (§2) Cynomolgus monkeys were used to evaluate the pharmacokinetics in monkeys of the acylated oxyntomodulin peptide analogs according to the present invention.

GLP-1 receptor [4] = biological target: T1, GLP-1 receptor (Homo sapiens, UniProt P43220); details: read-out: EC50 to the GLP-1 receptor; from Korean Patent Application No. 2017-0103798 / 2018-0095717; cited from earlier work
Target sequence in this assay (P43220 24-463, species assumed): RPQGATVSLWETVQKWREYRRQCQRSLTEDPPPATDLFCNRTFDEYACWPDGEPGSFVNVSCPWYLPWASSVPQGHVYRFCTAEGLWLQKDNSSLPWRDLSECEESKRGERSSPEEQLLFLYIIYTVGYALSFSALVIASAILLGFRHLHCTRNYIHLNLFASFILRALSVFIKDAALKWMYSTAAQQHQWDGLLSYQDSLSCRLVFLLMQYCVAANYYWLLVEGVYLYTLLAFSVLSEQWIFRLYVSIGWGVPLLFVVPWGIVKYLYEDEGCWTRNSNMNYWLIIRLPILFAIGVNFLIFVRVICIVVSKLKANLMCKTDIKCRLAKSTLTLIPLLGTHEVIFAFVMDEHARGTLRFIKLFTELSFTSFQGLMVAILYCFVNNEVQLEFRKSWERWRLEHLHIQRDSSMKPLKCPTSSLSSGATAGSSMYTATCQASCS

glucagon receptor [5] = biological target: T2, glucagon receptor (Homo sapiens, UniProt P47871); details: from Korean Patent Application No. 2017-0103798 / 2018-0095717; cited from earlier work
Target sequence in this assay (P47871 26-477, species assumed): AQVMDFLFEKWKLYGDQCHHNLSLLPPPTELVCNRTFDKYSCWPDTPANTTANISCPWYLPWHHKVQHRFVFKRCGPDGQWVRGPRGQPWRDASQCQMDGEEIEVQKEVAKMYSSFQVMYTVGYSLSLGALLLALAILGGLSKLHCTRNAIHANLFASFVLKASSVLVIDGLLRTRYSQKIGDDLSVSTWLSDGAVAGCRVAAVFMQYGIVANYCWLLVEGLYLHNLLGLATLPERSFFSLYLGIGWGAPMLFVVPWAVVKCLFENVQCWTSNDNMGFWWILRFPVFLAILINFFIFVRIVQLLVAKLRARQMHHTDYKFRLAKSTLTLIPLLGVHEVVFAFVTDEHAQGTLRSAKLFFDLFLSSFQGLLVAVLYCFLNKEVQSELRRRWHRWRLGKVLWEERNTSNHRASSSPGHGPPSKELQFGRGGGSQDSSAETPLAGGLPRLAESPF

in vivo [6] = details: mouse
Source text: as §1

in vivo [7] = details: cynomolgus monkey, sc
Source text: as §2

GLP-1 receptor [8] = biological target: T1, GLP-1 receptor; assay: Human GLP-1 receptor activation assay (CRE-luciferase); format: cell-based; design: host or cells: CHO-K1; details: for Emax: CHO-K1, 6 h, read-out: GLP-1 receptor Maximum activation (% vs GLP-1); for EC50: CHO-K1 cells transiently transfected, luciferase, 6 hours, 0.1% BSA
Target sequence in this assay (P43220 24-463): as the sequence (P43220 24-463, species assumed) above

glucagon receptor [9] = biological target: T2, glucagon receptor; assay: Human glucagon receptor activation assay (CRE-luciferase); format: cell-based; design: host or cells: CHO-K1; details: CHO-K1 cells transiently transfected; for Emax: 6 h, relative to glucagon, read-out: GCG receptor Maximum activation (% vs GCG); for EC50: 6 hours, 0.1% BSA, read-out: GCG receptor EC50
Target sequence in this assay (P47871 26-477): as the sequence (P47871 26-477, species assumed) above

[10] = ICR, sc, Mouse PK (S.C. half-life)

Compound	body weight loss on average [1] [kg]	half-life ([2]; ICR, plasma, sc, 30 nmmol/kg, Mouse PK (S.C. half-life), ICR mice, single S.C. dose 30 nmmol/kg) [h]	half-life ([2]; in vivo, half-life, pharmacokinetic evaluation in mice (background), mice, dose not given) [h]	half-life [3] [h]	EC50 (GLP-1 receptor [4]) [nM]	EC50 (glucagon receptor [5]) [nM]	half-life (in vivo [6]; [10]) [h]	half-life (in vivo [6]; ICR, sc, half-life in mice) [h]	half-life (in vivo [6]; half-life, pharmacokinetic evaluation in mice (background)) [h]	half-life (in vivo [7]; Monkey PK (S.C. half-life)) [h]	half-life (in vivo [7]; monkey PK half-life) [h]	Emax (GLP-1 receptor [8]) [%]	EC50 (GLP-1 receptor [8]) [nM]	Emax (glucagon receptor [9]) [%]	EC50 (glucagon receptor [9]) [nM]
HSQGTFTSDYSKYLDSRRAQDFVQWLMNTKRNRNNIA (HSQGTFTSDKSKYLDSRRAQDFVQWLMNTKRNRNNIA; listed as Homo sapiens) [oxyntomodulin]	2.3														
CCCCCCCCCCCCCCCC(=O)N[C@@H](CCC(=O)NCCCC[C@H](NC(=O)[C@H](CC(=O)O)NC(=O)[C@H](CO)NC(=O)[C@@H](NC(=O)[C@H](Cc1ccccc1)NC(=O)[C@@H](NC(=O)CNC(=O)[C@H](CCC(N)=O)NC(=O)[C@H](CO)NC(=O)[C@@H](N)Cc1c[nH]cn1)[C@@H](C)O)[C@@H](C)O)C(=O)N[C@@H](CO)C(=O)N[C@@H](CCC(=O)O)C(=O)N[C@@H](Cc1ccc(O)cc1)C(=O)N[C@@H](CC(C)C)C(=O)N[C@@H](CC(=O)O)C(=O)N[C@@H](CO)C(=O)N[C@@H](CCC(=O)O)C(=O)N[C@@H](CCCNC(=N)N)C(=O)N[C@@H](C)C(=O)N[C@@H](CCCNC(=N)N)C(=O)N[C@@H](CC(=O)O)C(=O)N[C@@H](Cc1ccccc1)C(=O)N[C@H](C(=O)N[C@@H](C)C(=O)N[C@@H](Cc1c[nH]c2ccccc12)C(=O)N[C@@H](CC(C)C)C(=O)N[C@@H](CCC(=O)O)C(=O)N[C@@H](C)C(=O)NCC(=O)NCC(=O)O)C(C)C)C(=O)O [MEDI0382]		< 6	4	< 6											
CCCCCCCCCCCCCCCCCC(=O)N[C@@H](CCC(=O)NCCOCCOCC(=O)NCCOCCOCC(=O)NCCCC[C@H](NC(=O)[C@H](CC(=O)O)NC(=O)[C@H](CO)NC(=O)[C@@H](NC(=O)[C@H](Cc1ccccc1)NC(=O)[C@@H](NC(=O)CNC(=O)[C@H](CCC(N)=O)NC(=O)C(C)(C)NC(=O)[C@@H](N)Cc1c[nH]cn1)[C@@H](C)O)[C@@H](C)O)C(=O)N[C@@H](CO)C(=O)N[C@@H](CCCCN)C(=O)N[C@@H](Cc1ccc(O)cc1)C(=O)N[C@@H](CC(C)C)C(=O)N[C@@H](CC(=O)O)C(=O)NC(C)(C)C(=O)N[C@@H](CCCNC(=N)N)C(=O)N[C@@H](CCCNC(=N)N)C(=O)N[C@@H](C)C(=O)N[C@@H](CCC(N)=O)C(=O)N[C@@H](CC(=O)O)C(=O)N[C@@H](Cc1ccccc1)C(=O)N[C@H](C(=O)N[C@@H](CCC(N)=O)C(=O)N[C@@H](Cc1c[nH]c2ccccc12)C(=O)N[C@@H](CC(C)C)C(=O)N[C@@H](CCSC)C(=O)N[C@@H](CC(N)=O)C(=O)N[C@H](C(=O)N[C@@H](CCCCN)C(=O)N[C@@H](CCC(=O)O)C(=O)N[C@@H](Cc1ccc(O)cc1)C(=O)N[C@@H](CCC(=O)O)C(=O)N[C@@H](CCCCNC(=O)CCCCCCCCCCCCCCCCC(=O)O)C(=O)N[C@@H](CCC(=O)O)C(=O)N[C@@H](Cc1ccc(O)cc1)C(=O)N[C@@H](CCC(=O)O)C(=O)O)[C@@H](C)O)C(C)C)C(=O)O [Compound 3]					< 0.01	< 0.01	> 6	> 6	3.3	> 24	> 24	98.3	0.1 to 1	98.3	0.1 to 1
CCCCCCCCCCCCCCCCCC(=O)N[C@@H](CCC(=O)NCCOCCOCC(=O)NCCOCCOCC(=O)NCCCC[C@H](NC(=O)[C@H](CC(=O)O)NC(=O)[C@H](CO)NC(=O)[C@@H](NC(=O)[C@H](Cc1ccccc1)NC(=O)[C@@H](NC(=O)CNC(=O)[C@H](CCC(N)=O)NC(=O)C(C)(C)NC(=O)[C@@H](N)Cc1c[nH]cn1)[C@@H](C)O)[C@@H](C)O)C(=O)N[C@@H](CO)C(=O)N[C@@H](CCCCN)C(=O)N[C@@H](Cc1ccc(O)cc1)C(=O)N[C@@H](CC(C)C)C(=O)N[C@@H](CC(=O)O)C(=O)NC(C)(C)C(=O)N[C@@H](CCCNC(=N)N)C(=O)N[C@@H](CCCNC(=N)N)C(=O)N[C@@H](C)C(=O)N[C@@H](CCC(N)=O)C(=O)N[C@@H](CC(=O)O)C(=O)N[C@@H](Cc1ccccc1)C(=O)N[C@H](C(=O)N[C@@H](CCC(N)=O)C(=O)N[C@@H](Cc1c[nH]c2ccccc12)C(=O)N[C@@H](CC(C)C)C(=O)N[C@@H](CCSC)C(=O)N[C@@H](CC(N)=O)C(=O)N[C@H](C(=O)N[C@@H](CCCCN)C(=O)N[C@@H](CCC(=O)O)C(=O)N[C@@H](Cc1ccc(O)cc1)C(=O)N[C@@H](CCC(=O)O)C(=O)N[C@@H](CCCCNC(=O)CCCCCCCCCCCCCCC(=O)O)C(=O)N[C@@H](CCC(=O)O)C(=O)N[C@@H](Cc1ccc(O)cc1)C(=O)N[C@@H](CCC(=O)O)C(=O)O)[C@@H](C)O)C(C)C)C(=O)O [Compound 2]							> 6	> 6		12 to 18	> 12	104	0.1 to 1	100	0.1 to 1

From patent publication US20230220035A1 (DONG-A ST CO., LTD., published 2023)
